According to US9056923B2, “Mimetic peptides derived from collagen type IV and their use for treating angiogenesis- and lymphagiogenesis-dependent diseases” (THE JOHNS HOPKINS UNIVERSITY, priority 2010, dated 2015):
“Also recorded” adds a separate entry of the source. Where two headings read alike, the source gives them in different places. Ends that are not written are not given here.

What was measured:
[1] = system: MDA-MB-231 breast cancer cells; assay: MDA-MB-231 adhesion assay; format: cell-based
Method: (§1) Similar to the migration assays, the inhibition activity of the peptide in cellular adhesion was assessed using the RT-CIM technology. In this case, 25,000 cells/well were plated in 16 wells E-plates (Roche, Basel Switzerland) in the presence or absence of the peptide. The adhesion was monitored over time (3 hours) by measuring changes in the electrical impedance, which is a direct measure of the cells adhering on the electrodes. […] Assays were performed in at least two independent replicates and each replicate was performed using two experimental duplicates.

[2] = system: lymphatic endothelial cells (LEC); assay: LEC migration assay; format: cell-based
Method: (§2) The inhibitory potential of the peptides was measured using a real time migration assay system based on electrical impedance (RT-CIM, ACEA Biosciences, CA). CIM 16 well plates (Roche, 05665817001) are composed of a top and bottom chamber separated by a microporous (8 μm) polycarbonate membrane. The membrane was coated with fibronectin (20 μg/mL), and 45,000 cells/well in serum free media with or without peptides were added to the top compartment. Media with chemoattractant (i.e., fully supplemented EBM-2) was added to the bottom compartment of the chamber and the plate was incubated at 37° C. for 20 hours. The sensors integrated on the bottom side of the membrane monitor and continuously record changes in impedance as the cells move through the membrane. The RT-CIM technology allows for easy quantification of cell migration by monitoring the cell index derived from the measured impedances. Assays were performed in at least two independent replicates and each replicate was performed using two experimental duplicates.

[3] = system: MDA-MB-231 breast cancer cells; assay: MDA-MB-231 wound healing type migration assay (Oris Pro); format: cell-based
Method: Breast cancer cells MDA-MB-231 are not suitable for the RT-CIM type experiments due to their thin elongated phenotype, thus the inhibition of migration was investigated using a wound healing type assay. This assay was performed using the Oris Pro Migration assay (Platypus Technologies, CMA 1.101). Briefly, 20,000-25,000 cells/well in full media were added to the 96 well plate containing stoppers to block migration of cells to the center region of the wells. Cells were allowed to adhere for 4 hours, after which the stoppers were removed. Cells were washed one time with PBS and fully supplemented media, with or without compound, was added to the wells. […], cells were stained with calcein AM (0.5 μg/mL) (Invitrogen, CA) and the cells that migrated to the center of the well were quantified by fluorescence intensity measured using a Victor V plate reader (Perkin Elmer) and also imaged using a Leica or Nikon microscope.

[4] = system: microvascular endothelial cells (MEC); assay: MEC migration assay; format: cell-based
Method: as §2

[5] = system: microvascular endothelial cells (MEC); assay: MEC adhesion assay; format: cell-based
Method: as §1

[6] = system: HUVEC; format: cell-based, human
Procedure, shortened: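 HUVEC plated at 2000 cells/well overnight, then exposed to peptides in fully supplemented medium for three days. WST-1 added in serum-free EBM-2 for four hours and absorbance read at 450 nm. Percent live cells taken relative to untreated cells in complete medium with 0.2% DMSO.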

[7] = system: MDA-MB-231 xenograft; assay: MDA-MB-231 orthotopic breast tumor xenograft; format: in vivo, SCID mice
Method: For primary tumor inhibition studies, 1−2×10^6 tumor cells were injected into 4-6 wk old female SCID mice. After the tumors reached a size of 100 mm^3 the animals were randomized into groups of 10 animals each. The animals were treated with vehicle, SP2012, SP2000, or SP2024. The peptides were administered subcutaneously daily. Dosing was continued for 3 or 4 weeks and tumor sizes were measured every 3 days using calipers. The tumor volume was estimated using the formula V=a^2b/2 where a and b are the smaller and larger diameters.
For the tumor xenograft assay, animals were housed and treated according to the approved animal protocol of the Institutional Care and Use Committee at Johns Hopkins Medical Institution (JHMI). Orthotopic breast tumors were initiated in SCID mice using MDA-MB-231 cells. 2×10^6 cells per 100 μL aliquot of single cell suspension were injected in the breast mannary fat pad. Tumors reached volumes of 75 mm^3 to 100 mm^3 in approximately 14-21 days. Mice were randomized and arranged in groups (8 mice per group) with similar tumor volumes (no statistical difference among averages) and treatment was commenced. Peptides were administered once per day intraperitoneally (i.p.) at doses of 10 mg/kg (subcutaneous delivery was also tested with certain peptides). Paclitaxel was administered at 5 mg/kg once a week, and to maintain the daily treatment regime PBS was administered on the non-treatment days. Tumors were measured every fourth day using calipers and the tumor volume was calculated using the formula V=ab^2/2, where a is the larger diameter and b is the smaller diameter.

[8] = system: choroidal neovascularization; assay: Laser-induced choroidal neovascularization model; format: in vivo, C57BL/6 mice; conditions: 0.01, 0.1, or 1 μg into the mouse eye
Method: The ocular laser-induced choroidal neovascularization (NV) model of wet age-related macular degeneration was used for testing. 5-6-week-old female pathogen-free C57BL/6 mice were anesthetized with ketamine hydrochloride (100 mg/kg body weight) and pupils were dilated. Laser photocoagulation (75-μm spot size, 0.1-sec duration, 120 mW) was performed in the 9, 12, and 3 o'clock positions of the posterior pole of each eye with the slit lamp delivery system of an OcuLight GL diode laser (Iridex, Mountain View, Calif.) and a handheld cover slip as a contact lens to view the retina. Production of a tissue bubble by the laser, which indicates rupture of Bruch's membrane, is an important factor in obtaining choroidal NV; therefore, only burns in which a bubble is produced are included in the study. […] At day 7 the mice that received the naked peptides were dosed again whereas the mice that received the particles were administered PBS. Intravitreous injections were done under a dissecting microscope with a Harvard Pump Microinjection System and pulled glass micropipettes. After 14 days, the mice were perfused with 1 mL of PBS containing 50 mg/mL of fluorescein-labeled dextran (2×10^6 Daltons average molecular weight; Sigma-Aldrich, St. Louis, Mo.) and choroidal flat mounts were examined by fluorescence microscopy. Images were captured with a Nikon Digital Still Camera DXM1200 (Nikon Instruments Inc., New York, N.Y.). Image analysis software (Image-Pro Plus; Media Cybernetics, Silver Spring, Md.) was used to measure the total area of choroidal NV at each rupture site with the investigator masked with respect to treatment group.

LRRFSTMPFMFININNVINF-NH2 [SP2024]
inhibition of adhesion of MDA-MB-231 cells [1]: strong; also recorded: inhibition of cell adhesion
inhibition of migration of LEC [2]: strong
inhibition of migration of MDA-MB-231 cells [3]: strong; also recorded: inhibition of cell migration
inhibition of migration of MEC [4]: quite active
inhibition of adhesion of MEC [5]: quite active
IC50 [6]: 1.29 µM
Activity in Proliferation ([6]; HUVEC, Yes/No summary): Yes
IC50 ([6]; HUVEC, tables 5, 8-10 and text, read-out: IC50 ± 95% CI (μM), proliferation): 7.45 ± 5.7 µM
suppression of tumor growth ([7]; MDA-MB-231 xenograft in mice, 10 mg/kg daily): inhibited tumor growth significantly over the control
MDA-MB-231 xenograft inhibition ([7]; mice): Active
area of choroidal neovascularization [8]: generally decreased
